Test system: VX2 tumors
Assay: CT of hepatic VX2 tumors, co-administration study
Assay type: in vivo, rabbits
Details: VX2 rabbit
Text: In a particularly advantageous embodiment of the invention, a hepatocyte-selective oil-in-water emulsion is co-administered with the blood-pool agent of the present invention. Liver-selective particulate agents (hepatocyte-selective or Kupffer cell-selective) clear rapidly from the blood and render the blood hypodense relative to surrounding liver tissue. It is very difficult to separate small tumors, which also appear as hypodense areas from small vasculature in the sub 5 mm size range. In order to compensate for this problem, DHOG-PEG (Example 1) and hepatocyte-selective DHOG-LE (Emulsion Example 6, non-radioactive form) were co-administered to rabbits bearing VX2 tumors.
Rabbits (mean weight 2.5 kg) were inoculated with VX2 carcinoma directly into the hepatic parenchyma to produce a total of 8 focal lesions (2-10 mm). Ten days later, the rabbits were scanned with multiple techniques including noncontrast, helical IV enhanced (600 mg I/kg iohexol), and 24 hours later using the iodinated microparticulate emulsion (200 mg I/kg). Tissue density measurements (HU) were made of liver, lesions, and blood (descending aorta). Tumor morphology was verified by gross pathologic examination.

[1] = iohexol 600 mg I/kg, emulsion 200 mg I/kg

CC(=O)N(CC(O)CO)c1c(I)c(C(=O)NCC(O)CO)c(I)c(C(=O)NCC(O)CO)c1I (stereo not drawn) [iohexol]
lesion detection (sensitivity), Lesions < 1 cm: 49.3
lesion detection (sensitivity), Lesions > 1 cm: 97.6
lesion detection (sensitivity), Overall: 67.6
liver-to-lesion difference: 28.8
enhancement of liver tissue [1]: +66.8 HU
tumor enhancement [1]: +40.1 HU
